Laboratory results as given in US20250290117A1, “MOLECULAR PHENOTYPIC ANTIMICROBIAL SUSCEPTIBILITY TESTING” (priority 2024, published 2025).

Legend:
[1] = system: E. coli; assay: Molecular phenotypic antimicrobial susceptibility test, specimen with two detected pathogens incubated together without isolation; format: cell-based, Escherichia coli; conditions: E. coli in specimen with two detected pathogens (E. coli and M. morganii) incubated together; for Ct of Sensitive Breakpoint: Ct of controls (average) 15.93; for Molecular Antimicrobial Susceptibility Result: at sensitive breakpoint
Experimental: (§1) Detection of Molecular Phenotypic Antimicrobial Susceptibility. Disclosed herein are the methods for the detection of phenotypic antimicrobial susceptibility via molecular methods. The present invention describes how a specimen 100 with a known microbial load is incubated and then exposed to a panel of antimicrobial agents to determine sensitivity (prevention of growth) or resistance (allowance of growth) to the specific antimicrobial agents tested utilizing molecular methods.
(§2) Sample Collection. Specimens 100 are collected from patients using sterile collection processes that are employed in routine clinical care. Specimens are transported to the testing facility in boric acid preservative. Specimens 100 are subsequently divided into a first sample 104 and a second sample 108.
(§3) Preparation of the Specimens for Testing. The specimens 100 are put through a pathogen identification process using PCR technology (e.g., using the first sample 104). The process for pathogen isolation includes steps of harvesting the pathogen (e.g., via centrifugation), isolating pathogen DNA via a DNA isolation and/or purification kit, and performing PCR on the pathogen DNA via PCR components (e.g., primers, enzymes, buffers) as would be known to the skilled artisan. Simultaneously, an additional aliquot of the same specimen (e.g., the second sample 108) is placed with liquid culture media and incubated for 4-6 hours. This aliquot is used for antimicrobial susceptibility testing if indicated based on the pathogen detection results. After pathogen identification is completed and if more than 10,000 cells/mL of bacteria (e.g., eligible bacteria) are detected in the source specimen, the second sample 108 then enters the antimicrobial susceptibility phase of testing. Specimens 100 with lower pathogen loads could also be utilized in the antibiotic susceptibility phase of testing with or without a longer incubation period.
(§4) Preparation of Antimicrobial Susceptibility Testing Plates. Antimicrobial solutions are prepared at known concentrations. The specific antimicrobials and their concentrations are selected based on the pathogen of interest and the described antimicrobial resistance breakpoints for that specimen pathogen and antimicrobial combination. These antimicrobials have been selected based on those commonly utilized by healthcare providers in routine clinical care for the specific type of suspected infection. The number and types of antimicrobials utilized can be customized based on the infection source, pathogen detected, patient-specific factors such as allergies or other health conditions (e.g., chronic kidney disease or concurrent medication use), or healthcare provider preferences such as antimicrobial availability or cost.
(§5) The antimicrobial solutions are prepared in liquid culture media (such as Muller Hinton Broth) to achieve the desired antimicrobial concentration and are then stored at −80° C. until use. For a given specimen, each antimicrobial is tested at a single or multiple antimicrobial concentration(s) which is its established breakpoints for sensitivity. The antimicrobial solutions are prepared and plated out for each specific pathogen. This allows ease of use on the day of testing after defrosting the plate 112. Table 1, which illustrates the results of molecular phenotypic antimicrobial susceptibility testing when more than one organism is present in the source specimen, provides an example of an antimicrobial plate 112 prepared for this purpose. Of note, control wells containing only culture media are present on all plates 112. This allows for evaluation of pathogen load when no antimicrobial is present.
(§6) Specimen Exposure to Antimicrobial Agents. The 1 mL aliquot of the specimen 100 previously mixed with culture media and incubated is obtained. Using optical density measurements as a guide, the specimen 100 is diluted to 0.5 McFarland. […]

[2] = system: Acinetobacter baumannii; assay: Traditional culture-based antimicrobial susceptibility test; format: cell-based
Description: (§7) Table 2 illustrates the results of an example antimicrobial agent susceptibility test of the current application versus a traditional culture-based antimicrobial agent susceptibility test for Acetobacter baumanii, in accordance with one or more embodiments of the disclosure. This specimen underwent extraction and/or DNA purification prior to PCR. As in Table 1, the results of the test of the current application are similar to the results from the traditional test.
Result Reporting to Healthcare Providers. The results from the antimicrobial exposure are reported to the ordering healthcare provider. This information can be utilized by the healthcare provider when selecting an antimicrobial regimen for their individual patient based on these individual specimen results and patient specific factors. […] The current standard of care for antimicrobial susceptibility testing involves the growth, isolation, and exposure of pathogens to antimicrobials. This traditional culture and sensitivity process can take multiple days to obtain results, limiting the ability of healthcare providers to receive timely results to make actionable changes in patient care or management. Healthcare providers desire a method to obtain antimicrobial susceptibility results with quicker turn-around-time. This application discloses a molecular-based phenotypic antimicrobial susceptibility method which involves pathogen exposure to a panel of antimicrobial agents at their specified minimum inhibitory concentration breakpoints for sensitivity. This method allows for more timely antimicrobial susceptibility results.

[3] = system: M. morganii; assay: Molecular phenotypic antimicrobial susceptibility test, specimen with two detected pathogens incubated together without isolation; format: cell-based, Morganella morganii; conditions: M. morganii in specimen with two detected pathogens (E. coli and M. morganii) incubated together; for Ct of Sensitive Breakpoint: Ct of controls (average) 19.99; for Molecular Antimicrobial Susceptibility Result: at sensitive breakpoint
Experimental: as §1, §2, §3, §4, §5, §6

[4] = system: Escherichia coli; assay: Traditional culture-based antimicrobial susceptibility test; format: cell-based
Description: as §7, with “3” for “2”, “multiple Escherichia coli isolates,” for “Acetobacter baumanii,”, “These specimens” for “This specimen”, “or” for “and/or”, “Tables 1 and 2,” for “Table 1,”, “test. […]” for “test.”
Table 8 illustrates the results of an example antimicrobial agent susceptibility test of the current application versus a traditional culture-based antimicrobial agent susceptibility test for a low level positive with <10,000 cells/mL in the original specimen. These specimens were tested with direct PCR (e.g., no extraction DNA purification step prior to PCR) after 16 hours of incubation. As in Tables 1, 2, 3, 5, and 7, the results of the test are similar to the traditional test. […]

[5] = E. coli #1 - WDCM 00090 - 6.2×E3
[6] = E. coli #2 - WDCM 00090 - 6.2×E3

O=C(O)c1cn(C2CC2)c2cc(N3CCNCC3)c(F)cc2c1=O [Ciprofloxacin]
Ct of Sensitive Breakpoint [1]: 31.81
Molecular Antimicrobial Susceptibility Result [1]: Sensitive (Antimicrobial wells with pathogen load detected below the control wells (typically >2 cycle thresholds later) may be reported as Sensitive)
Traditional Culture Result ([2]; A. baumannii isolate 1): Resistant
Traditional Culture Result ([2]; A. baumannii isolate 2): Resistant
Traditional Culture Result ([2]; A. baumannii isolate 3): Resistant
Traditional Culture Result ([2]; A. baumannii isolate 4): Resistant
Traditional Culture Result ([2]; A. baumannii isolate 5): Resistant
Ct of Sensitive Breakpoint [3]: 34.71
Molecular Antimicrobial Susceptibility Result [3]: Sensitive (Antimicrobial wells with pathogen load detected below the control wells (typically >2 cycle thresholds later) may be reported as Sensitive)
Traditional Culture Result ([4]; E. coli isolate 1 (Table 3)): Resistant
Traditional Culture Result ([4]; E. coli isolate 2 (Table 3)): Resistant
Traditional Culture Result ([4]; E. coli isolate 3 (Table 3)): Resistant
Traditional Culture Result ([4]; E. coli isolate 4 (Table 3)): Resistant
Traditional Culture Result ([4]; E. coli isolate 5 (Table 3)): Sensitive
Traditional Culture Result ([4]; E. coli isolate JJ1887): Resistant

C[C@@H](O)[C@H]1C(=O)N2C(C(=O)O)=C(S[C@@H]3CN[C@H](C(=O)N(C)C)C3)[C@H](C)[C@H]12 [Meropenem]
Ct of Sensitive Breakpoint [1]: 25.70
Molecular Antimicrobial Susceptibility Result [1]: Sensitive (Antimicrobial wells with pathogen load detected below the control wells (typically >2 cycle thresholds later) may be reported as Sensitive)
Traditional Culture Result ([2]; A. baumannii isolate 1): Resistant
Traditional Culture Result ([2]; A. baumannii isolate 2): Resistant
Traditional Culture Result ([2]; A. baumannii isolate 3): Resistant
Traditional Culture Result ([2]; A. baumannii isolate 4): Resistant
Traditional Culture Result ([2]; A. baumannii isolate 5): Resistant
Ct of Sensitive Breakpoint [3]: 29.99
Molecular Antimicrobial Susceptibility Result [3]: Sensitive (Antimicrobial wells with pathogen load detected below the control wells (typically >2 cycle thresholds later) may be reported as Sensitive)
Traditional Culture Result ([4]; E. coli isolate 1 (Table 3)): Sensitive
Traditional Culture Result ([4]; E. coli isolate 2 (Table 3)): Sensitive
Traditional Culture Result ([4]; E. coli isolate 3 (Table 3)): Sensitive
Traditional Culture Result ([4]; E. coli isolate JJ1887): Sensitive

Ampicillin/Sulbactam
Ct of Sensitive Breakpoint [1]: 14.58
Molecular Antimicrobial Susceptibility Result [1]: Resistant
Traditional Culture Result ([2]; A. baumannii isolate 4): Sensitive
Traditional Culture Result ([2]; A. baumannii isolate 5): Sensitive
Ct of Sensitive Breakpoint [3]: 22.00
Molecular Antimicrobial Susceptibility Result [3]: Sensitive (Antimicrobial wells with pathogen load detected below the control wells (typically >2 cycle thresholds later) may be reported as Sensitive)
Traditional Culture Result ([4]; E. coli isolate 1 (Table 3)): Resistant
Traditional Culture Result ([4]; E. coli isolate 2 (Table 3)): Resistant
Traditional Culture Result ([4]; E. coli isolate 3 (Table 3)): Resistant
Traditional Culture Result ([4]; E. coli isolate JJ1887): Resistant

Gentamicin
Ct of Sensitive Breakpoint [1]: 17.37
Molecular Antimicrobial Susceptibility Result [1]: Resistant
Traditional Culture Result ([2]; A. baumannii isolate 4): Sensitive
Traditional Culture Result ([2]; A. baumannii isolate 5): Sensitive
Ct of Sensitive Breakpoint [3]: 30.09
Molecular Antimicrobial Susceptibility Result [3]: Sensitive (Antimicrobial wells with pathogen load detected below the control wells (typically >2 cycle thresholds later) may be reported as Sensitive)
Traditional Culture Results [4, 5]: Sensitive
Traditional Culture Results [4, 6]: Sensitive
Traditional Culture Result ([4]; E. coli isolate 1 (Table 3)): Sensitive
Traditional Culture Result ([4]; E. coli isolate 2 (Table 3)): Sensitive
Traditional Culture Result ([4]; E. coli isolate 3 (Table 3)): Sensitive
Traditional Culture Result ([4]; E. coli isolate 4 (Table 3)): Sensitive
Traditional Culture Result ([4]; E. coli isolate 5 (Table 3)): Sensitive
Traditional Culture Result ([4]; E. coli isolate JJ1887): Resistant

Piperacillin/Tazobactam
Ct of Sensitive Breakpoint [1]: 27.51
Molecular Antimicrobial Susceptibility Result [1]: Sensitive (Antimicrobial wells with pathogen load detected below the control wells (typically >2 cycle thresholds later) may be reported as Sensitive)
Traditional Culture Result ([2]; A. baumannii isolate 1): Resistant
Traditional Culture Result ([2]; A. baumannii isolate 2): Resistant
Traditional Culture Result ([2]; A. baumannii isolate 3): Resistant
Traditional Culture Result ([2]; A. baumannii isolate 4): Resistant
Traditional Culture Result ([2]; A. baumannii isolate 5): Resistant
Ct of Sensitive Breakpoint [3]: 29.64
Molecular Antimicrobial Susceptibility Result [3]: Sensitive (Antimicrobial wells with pathogen load detected below the control wells (typically >2 cycle thresholds later) may be reported as Sensitive)
Traditional Culture Results [4, 5]: Sensitive
Traditional Culture Results [4, 6]: Sensitive
Traditional Culture Result ([4]; E. coli isolate 1 (Table 3)): Sensitive
Traditional Culture Result ([4]; E. coli isolate 2 (Table 3)): Sensitive
Traditional Culture Result ([4]; E. coli isolate 3 (Table 3)): Sensitive
Traditional Culture Result ([4]; E. coli isolate 4 (Table 3)): Sensitive
Traditional Culture Result ([4]; E. coli isolate 5 (Table 3)): Sensitive
Traditional Culture Result ([4]; E. coli isolate JJ1887): Sensitive

Trimethoprim/Sulfamethoxazole [TMP/SMX]
Ct of Sensitive Breakpoint [1]: 27.67
Molecular Antimicrobial Susceptibility Result [1]: Sensitive (Antimicrobial wells with pathogen load detected below the control wells (typically >2 cycle thresholds later) may be reported as Sensitive)
Traditional Culture Result ([2]; A. baumannii isolate 1): Sensitive
Traditional Culture Result ([2]; A. baumannii isolate 2): Sensitive
Traditional Culture Result ([2]; A. baumannii isolate 3): Sensitive
Traditional Culture Result ([2]; A. baumannii isolate 4): Sensitive
Traditional Culture Result ([2]; A. baumannii isolate 5): Sensitive
Ct of Sensitive Breakpoint [3]: 32.93
Molecular Antimicrobial Susceptibility Result [3]: Sensitive (Antimicrobial wells with pathogen load detected below the control wells (typically >2 cycle thresholds later) may be reported as Sensitive)
Traditional Culture Result ([4]; E. coli isolate 1 (Table 3)): Sensitive
Traditional Culture Result ([4]; E. coli isolate 2 (Table 3)): Sensitive
Traditional Culture Result ([4]; E. coli isolate 3 (Table 3)): Sensitive
Traditional Culture Result ([4]; E. coli isolate 4 (Table 3)): Resistant
Traditional Culture Result ([4]; E. coli isolate 5 (Table 3)): Sensitive
Traditional Culture Result ([4]; E. coli isolate JJ1887): Resistant
